# Key:
# [1] = Inhibition of human CCD1059SK cells; format: functional, cell-based
# [2] = test system: A549; experiment: cells; conditions: Homo sapiens
# Description: Antiproliferative activity against human A549 cells
# [3] = test system: HCT-116; experiment: Inhibition of human HCT116 cells; format: functional, cell-based
# [4] = test system: MCF7; experiment: Inhibition of human MCF7 cells; format: functional, cell-based
# [5] = test system: SW-620; experiment: Inhibition of human SW620 cells; format: functional, cell-based
# [6] = test system: SK-BR-3; experiment: Antiproliferative activity against human SKBR3 cells; format: functional, cell-based
# [7] = test system: MKN-45; experiment: Antiproliferative activity against human MKN45 cells; format: functional, cell-based
# [8] = target: Histone deacetylase; experiment: Inhibition of HDAC from human SNU16 cells; conditions: snu-16
# [9] = target: Histone deacetylase; experiment: Inhibition of HDAC from human K562 cells; format: cell-based
# [10] = test system: HT-1080; experiment: Inhibition of human HT1080 cells; format: functional, cell-based
# [11] = target: T1, Histone deacetylase 1 (Homo sapiens, UniProt Q13547)
# Description: Inhibition of human HDAC1
# [12] = Inhibition of mouse SC9 cells; format: functional, cell-based
# [13] = target: Histone deacetylase; experiment: Inhibition of human liver HDAC
# [14] = test system: CCRF-CEM; experiment: Inhibition of human CEM cells assessed as viability; format: functional, cell-based
# [15] = target: Histone deacetylase; experiment: Inhibition of HDAC in human CEM cells; format: cell-based; conditions: ccrf-cem
# [16] = target: Histone deacetylase; experiment: Inhibition of HDAC from human HeLa cells; format: cell-based
# [17] = target: T2, Histone deacetylase 8 (Homo sapiens, UniProt Q9BY41)
# T2 sequence (Q9BY41 whole entry): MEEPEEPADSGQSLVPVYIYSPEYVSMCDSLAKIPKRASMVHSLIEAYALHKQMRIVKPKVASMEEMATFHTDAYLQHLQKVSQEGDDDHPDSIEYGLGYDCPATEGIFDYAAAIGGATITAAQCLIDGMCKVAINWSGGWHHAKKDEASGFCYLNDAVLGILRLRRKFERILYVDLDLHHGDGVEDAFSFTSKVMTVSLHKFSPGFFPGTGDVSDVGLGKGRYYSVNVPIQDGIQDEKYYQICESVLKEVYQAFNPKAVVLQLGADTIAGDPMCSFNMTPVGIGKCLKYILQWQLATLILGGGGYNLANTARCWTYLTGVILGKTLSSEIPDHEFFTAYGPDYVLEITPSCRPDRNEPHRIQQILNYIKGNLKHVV
# Description: Inhibition of human HDAC8
# [18] = test system: SQ20B; experiment: Inhibition of human SQ20B cells; format: functional, cell-based
# [19] = target: T1, Histone deacetylase 1; experiment: Inhibition of HDAC1 from human HeLa cells; format: cell-based
# [20] = test system: MM96L; experiment: Inhibition of human MM96L cells; format: functional, cell-based
# [21] = Growth inhibition of human neonatal foreskin fibroblasts cells; format: functional, cell-based; conditions: Fibroblast
# T1 sequence (Q13547 whole entry): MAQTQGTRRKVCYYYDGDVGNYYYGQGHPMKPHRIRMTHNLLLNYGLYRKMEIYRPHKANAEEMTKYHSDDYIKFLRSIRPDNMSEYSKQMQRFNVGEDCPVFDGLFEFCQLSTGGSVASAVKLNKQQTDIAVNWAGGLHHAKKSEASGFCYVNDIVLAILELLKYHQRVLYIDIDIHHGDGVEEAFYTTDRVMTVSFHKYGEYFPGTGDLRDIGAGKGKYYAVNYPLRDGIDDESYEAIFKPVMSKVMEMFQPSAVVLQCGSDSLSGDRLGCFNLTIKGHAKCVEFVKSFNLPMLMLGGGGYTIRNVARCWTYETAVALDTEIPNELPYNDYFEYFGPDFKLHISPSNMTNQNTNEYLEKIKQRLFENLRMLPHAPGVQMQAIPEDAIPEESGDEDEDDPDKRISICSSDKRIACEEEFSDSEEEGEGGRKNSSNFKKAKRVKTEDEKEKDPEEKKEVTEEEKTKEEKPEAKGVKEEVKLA
structure (smiles),measurement,setting,value
Nc1ccccc1NC(=O)c1ccc(CN(CCO)Cc2ccc3c(c2)OCO3)cc1,IC50,[1],41700 nM
same,IC50,[2],20000 nM
same,IC50,[3],800 nM
same,IC50,[4],3800 nM
same,IC50,[5],2200 nM
same,IC50,[6],3500 nM
O=C(/C=C/c1ccc(CNC(=O)c2ccc(N3CCCC3)cc2)cc1)NO,IC50,[2],350 nM
same,IC50,[7],800 nM
same,IC50,[8],205 nM
same,IC50,[6],110 nM
O=C(CCCCCCc1nc(-c2ccc3ccccc3c2)cs1)NO,IC50,[9],4.3 nM
same,IC50,[10],2390 nM
O=C(CCCCCCN(CCCc1ccccc1)CCc1ccccc1)NO,IC50,[11],159 nM
same,IC50,[12],934000 nM
O=C(CCCCCC(=O)N(CC(=O)Nc1nc2ccccc2s1)CC(=O)Nc1nc2ccccc2s1)NO,IC50,[12],50000 nM
O=C(CCCCC[S+]([O-])c1ccccc1)NO (stereo unspecified),IC50,[13],60 nM
same,IC50,[14],> 25000 nM
same,IC50,[15],7400 nM
COc1cccc(OC)c1-c1csc(CCCCCCC(=O)NO)n1,IC50,[9],4.3 nM
same,IC50,[10],2000 nM
O=C(CO)NCCCCCC(=O)Nc1ccccc1,IC50,[16],> 40000 nM
same,IC50,[17],> 40000 nM
O=C(CCCCCCC(=O)N1CCN(c2ccc(Cl)cc2)CC1)NO,IC50,[11],36.5 nM
same,IC50,[12],555000 nM
CN(C)c1ccc(NC(=O)NCCCCCCC(=O)NO)cc1,IC50,[16],700 nM
same,IC50,[18],10000 nM
CN(C)c1ccc(CNC(=O)NCCCCCCC(=O)NO)cc1,IC50,[16],1000 nM
same,IC50,[18],50000 nM
O=C(CCCCCC(=O)N(CC(=O)Nc1cccc2cccnc12)CC(=O)Nc1cccc2cccnc12)NO,IC50,[12],52000 nM
COc1ccc2[nH]c(C)c(CN[C@@H](CCCCCC(C)=O)C(=O)Nc3nc(-c4ccccc4)cs3)c2c1,IC50,[11],25 nM
same,IC50,[19],< 390 nM
CC(=O)CCCCC[C@H](NC(C)=O)C(=O)NCCc1c(-c2ccccc2)[nH]c2ccccc12,IC50,[19],7600 nM
O=C(CCCSC[C@H](NC(=O)c1ccc2ccccc2c1)C(=O)NCc1ccccc1)NO,IC50,[20],600 nM
same,IC50,[21],1140 nM
CC(=O)SCC(=O)CCCCCCC(=O)Nc1ccccc1,IC50,[16],81 nM
same,IC50,[17],190 nM
COc1ccc(-c2cnc(CCCCCCC(=O)NO)o2)cc1,IC50,[9],2.1 nM
same,IC50,[10],310 nM
O=C(CCCCCSc1ccc(Cl)cc1)NO,IC50,[13],260 nM
same,IC50,[14],> 25000 nM
same,IC50,[15],> 25000 nM

# Source: ChEMBL document CHEMBL1142268, “Histone deacetylase inhibitors: from bench to clinic” (J Med Chem, 2008)
